From the NIST ThermoML archive (doi:10.1021/je050261u)
Numbers after ± are expanded uncertainties.

Test: xn = mol fraction of the nth substance listed
Details: Liquid, Vibrating tube method

CCCCCCC [heptane] + CCO
mass density [kg/m3]
Details | x2 = 0 | x2 = 0.125 | x2 = 0.25 | x2 = 0.375 | x2 = 0.5 | x2 = 0.625 | x2 = 0.75 | x2 = 0.875
293.15 K, 100 kPa | 683.9 ± 1 | 688.1 ± 1 | 694.5 ± 1 | 701.9 ± 1 | 711.2 ± 1 | 722.6 ± 1 | 737.9 ± 1 | 758.9 ± 1
293.15 K, 5000 kPa | 688.2 ± 1 | 692.5 ± 1 | 699 ± 1 | 706.4 ± 1 | 715.7 ± 1 | 727.1 ± 1 | 742.3 ± 1 | 763.2 ± 1
293.15 K, 10000 kPa | 692.5 ± 1.1 | 696.8 ± 1 | 703.3 ± 1 | 710.9 ± 1 | 719.9 ± 1 | 731.4 ± 1 | 746.6 ± 1 | 767.4 ± 1
293.15 K, 15000 kPa | 696.5 ± 1.1 | 701 ± 1.1 | 707.3 ± 1.1 | 714.9 ± 1.1 | 724 ± 1.1 | 735.4 ± 1 | 750.7 ± 1 | 771.4 ± 1
293.15 K, 20000 kPa | 700.5 ± 1.1 | 704.9 ± 1.1 | 711.3 ± 1.1 | 718.9 ± 1.1 | 728 ± 1.1 | 739.4 ± 1.1 | 754.6 ± 1.1 | 775.3 ± 1
293.15 K, 25000 kPa | 704.1 ± 1.1 | 708.5 ± 1.1 | 714.9 ± 1.1 | 722.4 ± 1.1 | 731.6 ± 1.1 | 743 ± 1.1 | 758.3 ± 1.1 | 778.9 ± 1.1
293.15 K, 30000 kPa | 707.5 ± 1.1 | 712 ± 1.1 | 718.4 ± 1.1 | 725.9 ± 1.1 | 735.1 ± 1.1 | 746.5 ± 1.1 | 761.7 ± 1.1 | 782.3 ± 1.1
293.15 K, 35000 kPa | 710.8 ± 1.1 | 715.4 ± 1.1 | 721.7 ± 1.1 | 729.3 ± 1.1 | 738.5 ± 1.1 | 749.9 ± 1.1 | 765.1 ± 1.1 | 785.6 ± 1.1
293.15 K, 40000 kPa | 714 ± 1.2 | 718.4 ± 1.1 | 725 ± 1.1 | 732.5 ± 1.1 | 741.7 ± 1.1 | 753.1 ± 1.1 | 768.4 ± 1.1 | 788.9 ± 1.1
293.15 K, 45000 kPa | 716.9 ± 1.2 | 721.5 ± 1.2 | 728 ± 1.2 | 735.5 ± 1.2 | 744.9 ± 1.1 | 756.2 ± 1.1 | 771.4 ± 1.1 | 791.9 ± 1.1
293.15 K, 50000 kPa | 719.8 ± 1.2 | 724.5 ± 1.2 | 731.1 ± 1.2 | 738.5 ± 1.2 | 747.9 ± 1.2 | 759.3 ± 1.1 | 774.5 ± 1.1 | 794.9 ± 1.1
293.15 K, 55000 kPa | 722.7 ± 1.2 | 727.4 ± 1.2 | 733.9 ± 1.2 | 741.4 ± 1.2 | 750.8 ± 1.2 | 762.2 ± 1.2 | 777.4 ± 1.1 | 797.8 ± 1.1
293.15 K, 60000 kPa | 725.4 ± 1.2 | 730.2 ± 1.2 | 736.7 ± 1.2 | 744.2 ± 1.2 | 753.6 ± 1.2 | 765 ± 1.2 | 780.2 ± 1.2 | 800.6 ± 1.1
293.15 K, 65000 kPa | 728 ± 1.3 | 732.9 ± 1.3 | 739.4 ± 1.2 | 746.9 ± 1.2 | 756.3 ± 1.2 | 767.8 ± 1.2 | 782.9 ± 1.2 | 803.4 ± 1.2
303.15 K, 100 kPa | 675.1 ± 1 | 679.8 ± 1 | 685.3 ± 1 | 692.7 ± 1 | 701.9 ± 1 | 713.4 ± 1 | 728.9 ± 1 | 749.9 ± 1
303.15 K, 5000 kPa | 680 ± 1 | 684.8 ± 1 | 690.2 ± 1 | 697.6 ± 1 | 706.9 ± 1 | 718.3 ± 1 | 733.7 ± 1 | 754.6 ± 1
303.15 K, 10000 kPa | 684.4 ± 1.1 | 689.3 ± 1.1 | 694.8 ± 1 | 702.1 ± 1 | 711.4 ± 1 | 722.8 ± 1 | 738.2 ± 1 | 759 ± 1
303.15 K, 15000 kPa | 688.9 ± 1.1 | 693.8 ± 1.1 | 699.3 ± 1.1 | 706.8 ± 1.1 | 715.9 ± 1.1 | 727.4 ± 1.1 | 742.7 ± 1 | 763.3 ± 1
303.15 K, 20000 kPa | 692.8 ± 1.1 | 697.8 ± 1.1 | 703.4 ± 1.1 | 710.7 ± 1.1 | 720 ± 1.1 | 731.4 ± 1.1 | 746.7 ± 1.1 | 767.3 ± 1
303.15 K, 25000 kPa | 696.8 ± 1.1 | 701.7 ± 1.1 | 707.3 ± 1.1 | 714.7 ± 1.1 | 723.9 ± 1.1 | 735.4 ± 1.1 | 750.6 ± 1.1 | 771.1 ± 1.1
303.15 K, 30000 kPa | 700.3 ± 1.1 | 705.3 ± 1.1 | 710.9 ± 1.1 | 718.3 ± 1.1 | 727.5 ± 1.1 | 739 ± 1.1 | 754.2 ± 1.1 | 774.7 ± 1.1
303.15 K, 35000 kPa | 703.7 ± 1.1 | 708.9 ± 1.1 | 714.4 ± 1.1 | 721.8 ± 1.1 | 731.1 ± 1.1 | 742.6 ± 1.1 | 757.7 ± 1.1 | 778.2 ± 1.1
303.15 K, 40000 kPa | 707.1 ± 1.2 | 712.3 ± 1.2 | 717.9 ± 1.1 | 725.3 ± 1.1 | 734.5 ± 1.1 | 746 ± 1.1 | 761.2 ± 1.1 | 781.5 ± 1.1
303.15 K, 45000 kPa | 710.2 ± 1.2 | 715.4 ± 1.2 | 721.1 ± 1.2 | 728.5 ± 1.2 | 737.7 ± 1.1 | 749.2 ± 1.1 | 764.4 ± 1.1 | 784.8 ± 1.1
303.15 K, 50000 kPa | 713.4 ± 1.2 | 718.5 ± 1.2 | 724.2 ± 1.2 | 731.6 ± 1.2 | 740.8 ± 1.2 | 752.2 ± 1.2 | 767.5 ± 1.1 | 787.9 ± 1.1
303.15 K, 55000 kPa | 716.4 ± 1.2 | 721.4 ± 1.2 | 727.3 ± 1.2 | 734.7 ± 1.2 | 743.9 ± 1.2 | 755.3 ± 1.2 | 770.6 ± 1.2 | 791 ± 1.1
303.15 K, 60000 kPa | 719.2 ± 1.3 | 724.4 ± 1.2 | 730.2 ± 1.2 | 737.5 ± 1.2 | 746.9 ± 1.2 | 758.3 ± 1.2 | 773.5 ± 1.2 | 793.9 ± 1.1
303.15 K, 65000 kPa | 722 ± 1.3 | 727.2 ± 1.3 | 733 ± 1.3 | 740.4 ± 1.2 | 749.7 ± 1.2 | 761.1 ± 1.2 | 776.4 ± 1.2 | 796.7 ± 1.2
313.15 K, 100 kPa | 666.4 ± 1 | 670.7 ± 1 | 676 ± 1 | 683.3 ± 1 | 692.6 ± 1 | 704.2 ± 1 | 719.8 ± 1 | 740.8 ± 1
313.15 K, 5000 kPa | 671.6 ± 1 | 676.1 ± 1 | 681.4 ± 1 | 688.7 ± 1 | 697.9 ± 1 | 709.5 ± 1 | 724.9 ± 1 | 745.8 ± 1
313.15 K, 10000 kPa | 676.5 ± 1.1 | 681.1 ± 1.1 | 686.4 ± 1.1 | 693.6 ± 1 | 702.9 ± 1 | 714.3 ± 1 | 729.8 ± 1 | 750.5 ± 1
313.15 K, 15000 kPa | 681 ± 1.1 | 685.6 ± 1.1 | 690.9 ± 1.1 | 698.2 ± 1.1 | 707.5 ± 1.1 | 718.9 ± 1.1 | 734.3 ± 1 | 755 ± 1
313.15 K, 20000 kPa | 685.3 ± 1.1 | 689.9 ± 1.1 | 695.3 ± 1.1 | 702.6 ± 1.1 | 711.9 ± 1.1 | 723.3 ± 1.1 | 738.5 ± 1.1 | 759.1 ± 1.1
313.15 K, 25000 kPa | 689.4 ± 1.1 | 694 ± 1.1 | 699.4 ± 1.1 | 706.7 ± 1.1 | 716 ± 1.1 | 727.4 ± 1.1 | 742.6 ± 1.1 | 763.1 ± 1.1
313.15 K, 30000 kPa | 693.3 ± 1.1 | 697.9 ± 1.1 | 703.4 ± 1.1 | 710.5 ± 1.1 | 719.9 ± 1.1 | 731.3 ± 1.1 | 746.5 ± 1.1 | 766.9 ± 1.1
